How the values were obtained:
Solubility determination = conditions: for Sol6: pH 6; for Sol7: pH 7
Procedure, shortened: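 First, TFA-salt peptide was added to 0.1 M sodium diphosphate (pH 6.4 or 7.0) to 10 mg/ml and shaken 2 h at room temperature. Next, insoluble material was filtered off. Finally, filtrate and control, each 1 mg/ml in 50% acetonitrile, were compared by reversed-phase chromatography.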

[1] = target: T1, Human Neuropeptide Y2 Receptor (Homo sapiens, UniProt P49146); assay: Radioligand binding competition assay (RLB); conditions: Table 3, 125I-PYY(1-36) competition; read-out: Ki
T1 construct: purchased CHEMICON HTS066M
T1 sequence (P49146 1-381): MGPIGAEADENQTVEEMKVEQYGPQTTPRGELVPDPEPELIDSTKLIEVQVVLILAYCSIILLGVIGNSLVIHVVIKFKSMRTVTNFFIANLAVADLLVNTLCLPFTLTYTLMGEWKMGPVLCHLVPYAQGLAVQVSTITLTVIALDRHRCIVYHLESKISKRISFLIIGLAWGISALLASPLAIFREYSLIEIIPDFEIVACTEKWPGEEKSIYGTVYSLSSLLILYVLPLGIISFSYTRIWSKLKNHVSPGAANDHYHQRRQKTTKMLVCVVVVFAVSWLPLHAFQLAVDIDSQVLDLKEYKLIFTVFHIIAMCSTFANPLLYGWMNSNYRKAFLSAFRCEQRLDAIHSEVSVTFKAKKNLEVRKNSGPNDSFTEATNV
Procedure, shortened: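 Filtration binding assay on human Y2 receptor membrane preparation, 0.5 μg protein per well, in 50 mM HEPES pH 7.4 containing 5 mM MgCl2, 1 mM CaCl2 and 0.2% ovalbumin. Plates shake 2 h at room temperature before harvest and scintillation counting.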

SMILES | Sol6 (Solubility determination) | Sol7 (Solubility determination) | Ki [1]
CC[C@H](C)[C@H](NC(=O)[C@H](CCC(=O)O)NC(=O)[C@H](CCC(=O)O)NC(=O)[C@@H]1CCCN1C(=O)[C@@H](NC(=O)[C@H](C)NC(=O)[C@H](CC(=O)O)NC(=O)[C@H](CCC(=O)O)NC(=O)[C@H](CCC(=O)O)NC(=O)[C@@H]1CCCN1C(=O)[C@H](CCCCNC(=O)CCCCCNC(=O)CC[C@H](NC(=O)CCCCCCCCCCCCCCCCC(=O)O)C(=O)O)NC(=O)[C@H](CCC(=O)O)NC(=O)[C@@H]1CCCN1C(=O)[C@H](C)NC(=O)CC(C)C)[C@@H](C)O)C(=O)N[C@@H](CCC(N)=O)C(=O)N[C@@H](CCCNC(=N)N)C(=O)N[C@@H](Cc1ccc(O)cc1)C(=O)N[C@@H](Cc1ccc(O)cc1)C(=O)N[C@@H](CC(C)C)C(=O)N[C@@H](CO)C(=O)N[C@@H](CC(C)C)C(=O)N[C@@H](CCCNC(=N)N)C(=O)N[C@@H](Cc1c[nH]cn1)C(=O)N[C@@H](Cc1ccc(O)cc1)C(=O)N[C@@H](Cc1ccc(O)cc1)C(=O)N[C@@H](CC(N)=O)C(=O)N[C@@H](Cc1c[nH]c2ccccc12)C(=O)N[C@@H](CC(C)C)C(=O)N[C@H](C(=O)N[C@@H](CCCNC(=N)N)C(=O)N[C@@H](CCC(N)=O)C(=O)N[C@@H](CCCNC(=N)N)C(=O)N[C@@H](Cc1ccc(O)cc1)C(N)=O)[C@@H](C)O [Compound 97, N{alpha-4}-(3-methylbutanoyl)-N{epsilon-7}-(6-[(4S)-4-carboxy-4-(17-carboxyheptadecanamido)butanamido]hexanoyl)-[4A,7K,9E,13T,17I,18Q,22L,28Y,30W,31L]-hPYY(4-36)] | >10.0 mg/mL | >10.0 mg/mL | 4.23 nM
CC(C)CC(=O)N[C@@H](C)C(=O)N1CCC[C@H]1C(=O)N[C@@H](CCC(=O)O)C(=O)N[C@@H](CCCCNC(=O)CCCCCNC(=O)CC[C@H](NC(=O)CCCCCCCCCCCCCCCCC(=O)O)C(=O)O)C(=O)N1CCC[C@H]1C(=O)N[C@@H](CCC(=O)O)C(=O)N[C@@H](CCC(=O)O)C(=O)N[C@@H](CC(=O)O)C(=O)N[C@@H](C)C(=O)N[C@H](C(=O)N[C@@H](CCC(=O)O)C(=O)N[C@@H](CCC(=O)O)C(=O)N[C@@H](CCC(=O)O)C(=O)N[C@@H](CC(C)C)C(=O)N[C@@H](CCC(N)=O)C(=O)N[C@@H](CCCNC(=N)N)C(=O)N[C@@H](Cc1ccc(O)cc1)C(=O)N[C@@H](Cc1ccc(O)cc1)C(=O)N[C@H](C(=O)N[C@@H](CO)C(=O)N[C@@H](CC(C)C)C(=O)N[C@@H](CCCNC(=N)N)C(=O)N[C@@H](Cc1c[nH]cn1)C(=O)N[C@@H](Cc1ccc(O)cc1)C(=O)N[C@@H](Cc1ccc(O)cc1)C(=O)N[C@@H](CC(N)=O)C(=O)N[C@@H](Cc1c[nH]c2ccccc12)C(=O)N[C@@H](CC(C)C)C(=O)N[C@H](C(=O)N[C@@H](CCCNC(=N)N)C(=O)N[C@@H](CCC(N)=O)C(=O)N[C@@H](CCCNC(=N)N)C(=O)N[C@@H](Cc1ccc(O)cc1)C(N)=O)[C@@H](C)O)C(C)C)[C@@H](C)O [Compound 19, N{alpha-4}-(3-methylbutanoyl)-N{epsilon-7}-(6-[(4S)-4-carboxy-4-(17-carboxyheptadecanamido)butanamido]hexanoyl)[4A,7K,9E,13T,14E,18Q,22V,28Y,30W,31L]-hPYY(4-36)] | 10.0 mg/mL | 9.2 mg/mL | 9.63 nM

These reach a lower Ki [1]. Values come first.

Sol6 (Solubility determination) | Sol7 (Solubility determination) | Ki [1] | SMILES
8.8 mg/mL | 8.7 mg/mL | 3.06 nM | CC(C)CC(=O)N[C@@H](C)C(=O)N1CCC[C@H]1C(=O)N[C@@H](CCC(=O)O)C(=O)N[C@@H](CCCCNC(=O)CCCCCNC(=O)CC[C@H](NC(=O)CCCCCCCCCCCCCCCCC(=O)O)C(=O)O)C(=O)N1CCC[C@H]1C(=O)N[C@@H](CCC(=O)O)C(=O)N[C@@H](CCC(=O)O)C(=O)N[C@@H](CO)C(=O)N[C@@H](C)C(=O)N[C@H](C(=O)N1CCC[C@H]1C(=O)N[C@@H](CCC(=O)O)C(=O)N[C@@H](CCC(=O)O)C(=O)N[C@@H](CC(C)C)C(=O)N[C@@H](CCC(N)=O)C(=O)N[C@@H](CCCNC(=N)N)C(=O)N[C@@H](Cc1ccc(O)cc1)C(=O)N[C@@H](Cc1ccc(O)cc1)C(=O)N[C@H](C(=O)N[C@@H](CO)C(=O)N[C@@H](CC(C)C)C(=O)N[C@@H](CCCNC(=N)N)C(=O)N[C@@H](Cc1c[nH]cn1)C(=O)N[C@@H](Cc1ccc(O)cc1)C(=O)N[C@@H](Cc1ccc(O)cc1)C(=O)N[C@@H](CC(N)=O)C(=O)N[C@@H](Cc1c[nH]c2ccccc12)C(=O)N[C@@H](CC(C)C)C(=O)N[C@H](C(=O)N[C@@H](CCCNC(=N)N)C(=O)N[C@@H](CCC(N)=O)C(=O)N[C@@H](CCCNC(=N)N)C(=O)N[C@@H](Cc1ccc(O)cc1)C(N)=O)[C@@H](C)O)C(C)C)[C@@H](C)O [Compound 96, N{alpha-4}-(3-methylbutanoyl)-N{epsilon-7}-(6-[(4S)-4-carboxy-4-(17-carboxyheptadecanamido)butanamido]hexanoyl)-[4A,7K,9E,11S,13T,18Q,22V,28Y,30W,31L]-hPYY(4-36)]
0.0 mg/mL | 0.4 mg/mL | 0.58 nM | CC[C@H](C)[C@H](NC(=O)[C@H](CCC(=O)O)NC(=O)[C@H](CCC(=O)O)NC(=O)[C@@H]1CCCN1C(=O)[C@H](CO)NC(=O)[C@H](C)NC(=O)[C@H](C)NC(=O)[C@H](CCC(=O)O)NC(=O)[C@@H]1CCCN1C(=O)[C@@H]1CCCN1C(=O)[C@H](CCCCNC(=O)CCCCCNC(=O)CC[C@H](NC(=O)CCCCCCCCCCCCCCCCC(=O)O)C(=O)O)NC(=O)[C@H](CCC(=O)O)NC(=O)[C@@H]1CCCN1C(=O)[C@H](C)NC(=O)CC(C)C)C(=O)N[C@@H](CCC(N)=O)C(=O)N[C@@H](CCCNC(=N)N)C(=O)N[C@@H](Cc1ccc(O)cc1)C(=O)N[C@@H](Cc1ccc(O)cc1)C(=O)N[C@H](C(=O)N[C@@H](C)C(=O)N[C@@H](CC(C)C)C(=O)N[C@@H](CCCNC(=N)N)C(=O)N[C@@H](Cc1c[nH]cn1)C(=O)N[C@@H](Cc1ccc(O)cc1)C(=O)N[C@@H](Cc1ccc(O)cc1)C(=O)N[C@@H](CC(N)=O)C(=O)N[C@@H](Cc1c[nH]c2ccccc12)C(=O)N[C@@H](CC(C)C)C(=O)N[C@H](C(=O)N[C@@H](CCCNC(=N)N)C(=O)N[C@@H](CCC(N)=O)C(=O)N[C@@H](CCCNC(=N)N)C(=O)N[C@@H](Cc1ccc(O)cc1)C(N)=O)[C@@H](C)O)C(C)C [Compound 158, N{alpha-4}-(3-methylbutanoyl)-N{epsilon-7}-(6-[(4S)-4-carboxy-4-(17-carboxyheptadecanamido)butanamido]hexanoyl)-[4A,7K,9P,11A,17I,18Q,22V,23A,28Y,30W,31L]-hPYY(4-36)]
0.0 mg/mL | 0.4 mg/mL | 3.39 nM | CC[C@H](C)[C@H](NC(=O)[C@H](CCC(=O)O)NC(=O)[C@H](CCC(=O)O)NC(=O)[C@@H]1CCCN1C(=O)[C@@H](NC(=O)[C@H](C)NC(=O)[C@H](C)NC(=O)[C@H](C)NC(=O)[C@H](CCC(=O)O)NC(=O)[C@@H]1CCCN1C(=O)[C@H](CCCCNC(=O)CCCCCNC(=O)CC[C@H](NC(=O)CCCCCCCCCCCCCCCCC(=O)O)C(=O)O)NC(=O)[C@H](CCC(=O)O)NC(=O)[C@@H]1CCCN1C(=O)[C@H](C)NC(=O)CC(C)C)[C@@H](C)O)C(=O)N[C@@H](CCC(N)=O)C(=O)N[C@@H](CCCNC(=N)N)C(=O)N[C@@H](Cc1ccc(O)cc1)C(=O)N[C@@H](Cc1ccc(O)cc1)C(=O)N[C@H](C(=O)N[C@@H](C)C(=O)N[C@@H](CC(C)C)C(=O)N[C@@H](CCCNC(=N)N)C(=O)N[C@@H](Cc1c[nH]cn1)C(=O)N[C@@H](Cc1ccc(O)cc1)C(=O)N[C@@H](Cc1ccc(O)cc1)C(=O)N[C@@H](CC(N)=O)C(=O)N[C@@H](Cc1c[nH]c2ccccc12)C(=O)N[C@@H](CC(C)C)C(=O)N[C@H](C(=O)N[C@@H](CCCNC(=N)N)C(=O)N[C@@H](CCC(N)=O)C(=O)N[C@@H](CCCNC(=N)N)C(=O)N[C@@H](Cc1ccc(O)cc1)C(N)=O)[C@@H](C)O)C(C)C [Compound 178, N{alpha-4}-(3-methylbutanoyl)-N{epsilon-7}-(6-[(4S)-4-carboxy-4-(17-carboxyheptadecanamido)butanamido]hexanoyl)-[4A,7K,9E,10A,11A,13T,17I,18Q,22V,23A,28Y,30W,31L]-hPYY(4-36)]

From patent publication US12391737B2, “Soluble NPY2 receptor agonists” (Boehringer Ingelheim International GmbH, priority 2020, dated 2025)
